Data as given in PubChem BioAssay (NCI).
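All cell lines were grown in 96-well plates and treated with compound for 48 hours. Here, GI50 denotes the concentration required for 50% inhibition of growth. At the TGI there is no net growth.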

What was measured:
Assay in all cases: NCI-60 cell line screen, 48 h
KM12 colon = tested on: KM12 colon
MDA-MB-435 = tested on: MDA-MB-435
NCI-H23 lung = tested on: NCI-H23 lung
NCI-H460 lung = tested on: NCI-H460 lung
OVCAR-3 ovarian = tested on: OVCAR-3 ovarian
OVCAR-4 ovarian = tested on: OVCAR-4 ovarian
OVCAR-5 ovarian = tested on: OVCAR-5 ovarian
SK-MEL-28 melanoma = tested on: SK-MEL-28 melanoma
SN12C renal = tested on: SN12C renal
LOX IMVI melanoma = tested on: LOX IMVI melanoma

| SMILES | GI50 (KM12 colon) | TGI (KM12 colon) | GI50 (MDA-MB-435) | TGI (MDA-MB-435) | GI50 (NCI-H23 lung) | TGI (NCI-H23 lung) | GI50 (NCI-H460 lung) | TGI (NCI-H460 lung) | GI50 (OVCAR-3 ovarian) | TGI (OVCAR-3 ovarian) | GI50 (OVCAR-4 ovarian) | TGI (OVCAR-4 ovarian) | GI50 (OVCAR-5 ovarian) | TGI (OVCAR-5 ovarian) | GI50 (SK-MEL-28 melanoma) | TGI (SK-MEL-28 melanoma) | GI50 (SN12C renal) | TGI (SN12C renal) | TGI (LOX IMVI melanoma) |
| --- | --- | --- | --- | --- | --- | --- | --- | --- | --- | --- | --- | --- | --- | --- | --- | --- | --- | --- | --- |
| N#C/C(=N\Nc1ccc(Cl)cc1)C(=O)Nc1cc(-c2ccccc2)nn1-c1ccccc1 | 2.92 µM | > 100 µM | 2.79 µM | > 100 µM | 2.65 µM | > 100 µM | 2.51 µM | > 100 µM | 2.71 µM | > 100 µM | 2.25 µM | 7.62 µM | 3 µM | > 100 µM | 3.62 µM | > 100 µM | 2.44 µM | > 100 µM | – |
| CCOc1ccc(NC(=O)C2=C(C)NC(C)=C(C(=O)Nc3ccc(OCC)cc3)C2c2ccc(O)c(OC)c2)cc1 | – | > 100 µM | – | – | – | > 100 µM | – | > 100 µM | – | > 100 µM | – | > 100 µM | – | > 100 µM | – | > 100 µM | – | > 100 µM | > 100 µM |
| Nc1nc(NCCO)c(N=O)c(=O)[nH]1 | – | > 100 µM | – | – | – | – | – | > 100 µM | – | > 100 µM | – | > 100 µM | – | > 100 µM | – | > 100 µM | – | > 100 µM | > 100 µM |
| Cc1ccccc1C1OC(=O)c2ccccc21 (stereo not drawn) | – | > 100 µM | – | – | – | > 100 µM | – | > 100 µM | – | > 100 µM | – | – | – | > 100 µM | – | > 100 µM | – | > 100 µM | > 100 µM |
| CCOC(=O)/C(=N\OC)C(O)C(F)(F)F (stereo not drawn) | – | > 100 µM | – | > 100 µM | – | > 100 µM | – | – | – | – | – | – | – | > 100 µM | – | > 100 µM | – | > 100 µM | > 100 µM |
| O=C(C=Nc1ccccc1C(=O)[O-])c1cccs1.O=C(C=Nc1ccccc1C(=O)[O-])c1cccs1.[Co+2] | – | > 100 µM | – | – | – | > 100 µM | – | > 100 µM | – | 95.1 µM | – | – | – | > 100 µM | – | > 100 µM | – | > 100 µM | > 100 µM |
| CCCOC(=O)C1CCC(=O)N1C(=O)C(C)Cl (stereo not drawn) | – | > 100 µM | – | – | – | > 100 µM | – | > 100 µM | – | > 100 µM | – | > 100 µM | – | > 100 µM | – | > 100 µM | – | > 100 µM | > 100 µM |
| CC1=C(/C=C/C(=O)O)C(C)(C)CCC1 | – | – | – | > 100 µM | – | > 100 µM | – | > 100 µM | – | > 100 µM | – | > 100 µM | – | > 100 µM | – | > 100 µM | – | > 100 µM | > 100 µM |
| CCOC(=O)c1c(-c2ccccc2)oc(-c2ccccc2)c1C(=O)OCC | – | > 100 µM | – | – | – | > 100 µM | – | – | – | > 100 µM | – | – | – | > 100 µM | – | > 100 µM | – | > 100 µM | > 100 µM |
